Experimental data reported in PubChem BioAssay (NCI).
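Where inhibition never reached the appropriate level, the endpoint shown equals the highest concentration tested. Otherwise, values were interpolated linearly from a five-concentration, 48-hour dose response in 96-well plates. TGI: concentration producing complete growth inhibition.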

What was measured:
Test in all cases: inhibition of tumour cell growth, NCI panel, 48 h
EKVX NSCLC = system: EKVX NSCLC
SK-MEL-28 melanoma = system: SK-MEL-28 melanoma
SW-620 colon = system: SW-620 colon
T-47D breast = system: T-47D breast
MDA-MB-231 breast = system: MDA-MB-231 breast
UACC-257 melanoma = system: UACC-257 melanoma
SK-MEL-5 melanoma = system: SK-MEL-5 melanoma
A549 NSCLC = system: A549 NSCLC
RXF 393 renal = system: RXF 393 renal
MDA-MB-435 = system: MDA-MB-435
CCRF-CEM leukemia = system: CCRF-CEM leukemia
HOP-92 NSCLC = system: HOP-92 NSCLC
SN12C renal = system: SN12C renal
MOLT-4 leukemia = system: MOLT-4 leukemia
NCI-H23 lung = system: NCI-H23 lung
MCF7 breast = system: MCF7 breast
IGROV1 ovarian = system: IGROV1 ovarian
SK-OV-3 ovarian = system: SK-OV-3 ovarian
MDA-N = system: MDA-N
OVCAR-8 ovarian = system: OVCAR-8 ovarian
MALME-3M melanoma = system: MALME-3M melanoma
UACC-62 melanoma = system: UACC-62 melanoma
SF-268 CNS = system: SF-268 CNS
SNB-75 CNS = system: SNB-75 CNS
SF-295 CNS = system: SF-295 CNS
COLO 205 colon = system: COLO 205 colon
KM12 colon = system: KM12 colon
HCT-15 colon = system: HCT-15 colon
TK-10 renal = system: TK-10 renal
DU-145 prostate = system: DU-145 prostate
OVCAR-4 ovarian = system: OVCAR-4 ovarian
HOP-62 NSCLC = system: HOP-62 NSCLC
CAKI-1 renal = system: CAKI-1 renal
SR leukemia = system: SR leukemia
HL-60(TB) leukemia = system: HL-60(TB) leukemia
K-562 leukemia = system: K-562 leukemia
HCC-2998 colon = system: HCC-2998 colon
786-0 renal = system: 786-0 renal
RPMI-8226 leukemia = system: RPMI-8226 leukemia
HT29 colon = system: HT29 colon
OVCAR-3 ovarian = system: OVCAR-3 ovarian
NCI-H226 lung = system: NCI-H226 lung
U251 CNS = system: U251 CNS
NCI/ADR-RES ovarian = system: NCI/ADR-RES ovarian
NCI-H460 lung = system: NCI-H460 lung
A498 renal = system: A498 renal
UO-31 renal = system: UO-31 renal
LOX IMVI melanoma = system: LOX IMVI melanoma
M14 melanoma = system: M14 melanoma
SK-MEL-2 melanoma = system: SK-MEL-2 melanoma
NCI-H522 lung = system: NCI-H522 lung
ACHN renal = system: ACHN renal
PC-3 prostate = system: PC-3 prostate
SF-539 CNS = system: SF-539 CNS
OVCAR-5 ovarian = system: OVCAR-5 ovarian
SNB-19 CNS = system: SNB-19 CNS
HCT-116 colon = system: HCT-116 colon
HS 578T breast = system: HS 578T breast
BT-549 breast = system: BT-549 breast

## CCN1CCNc2c3cc(OC)ccc3nc3c([N+](=O)[O-])ccc1c23
EKVX NSCLC
  TGI: 6.13 µM
SK-MEL-28 melanoma
  TGI: 5.93 µM
SW-620 colon
  TGI: > 10 µM
T-47D breast
  TGI: > 10 µM
MDA-MB-231 breast
  TGI: 4.56 µM
UACC-257 melanoma
  TGI: 3.7 µM
SK-MEL-5 melanoma
  TGI: 2.53 µM
A549 NSCLC
  TGI: > 10 µM
RXF 393 renal
  TGI: 2.01 µM
MDA-MB-435
  TGI: 2.2 µM
CCRF-CEM leukemia
  TGI: 3.22 µM
HOP-92 NSCLC
  TGI: 4.57 µM
SN12C renal
  TGI: 5.74 µM
MOLT-4 leukemia
  TGI: 1.34 µM
NCI-H23 lung
  TGI: 5.46 µM
MCF7 breast
  TGI: 6.51 µM
IGROV1 ovarian
  TGI: > 10 µM
SK-OV-3 ovarian
  TGI: > 10 µM
MDA-N
  TGI: 2.1 µM
OVCAR-8 ovarian
  TGI: > 10 µM
MALME-3M melanoma
  TGI: 2.29 µM
UACC-62 melanoma
  TGI: 4.58 µM
SF-268 CNS
  TGI: > 10 µM
SNB-75 CNS
  TGI: 4.38 µM
SF-295 CNS
  TGI: 5.55 µM
COLO 205 colon
  TGI: 5.39 µM
KM12 colon
  TGI: 3.42 µM
HCT-15 colon
  TGI: 4.29 µM
TK-10 renal
  TGI: > 10 µM
DU-145 prostate
  TGI: > 10 µM
OVCAR-4 ovarian
  TGI: 4.33 µM
HOP-62 NSCLC
  TGI: 3.83 µM
CAKI-1 renal
  TGI: > 10 µM
SR leukemia
  TGI: 1.16 µM
HL-60(TB) leukemia
  TGI: 2.37 µM
K-562 leukemia
  TGI: > 10 µM
HCC-2998 colon
  TGI: 2.14 µM
786-0 renal
  TGI: 9.61 µM
RPMI-8226 leukemia
  TGI: 3.25 µM
HT29 colon
  TGI: > 10 µM

## CC[C@H](C)C1=C(OC(C)=O)[N@+]2([O-])Oc3ccc(-c4c(OC(C)=O)c(OC(C)=O)c(-c5ccc(OC(C)=O)cc5)c(OC(C)=O)c4OC(C)=O)cc3O[C@]2([C@@H](C)CC)C(=O)N1OC(C)=O
EKVX NSCLC
  TGI: 22.5 µM
OVCAR-3 ovarian
  TGI: 23.4 µM
SK-MEL-28 melanoma
  TGI: > 50 µM
NCI-H226 lung
  TGI: > 50 µM
U251 CNS
  TGI: > 50 µM
SW-620 colon
  TGI: > 50 µM
T-47D breast
  TGI: 32 µM
MDA-MB-231 breast
  TGI: > 50 µM
UACC-257 melanoma
  TGI: > 50 µM
SK-MEL-5 melanoma
  TGI: 22.5 µM
A549 NSCLC
  TGI: 41.6 µM
NCI/ADR-RES ovarian
  TGI: > 50 µM
RXF 393 renal
  TGI: > 50 µM
MDA-MB-435
  TGI: > 50 µM
NCI-H460 lung
  TGI: > 50 µM
CCRF-CEM leukemia
  TGI: 11.3 µM
A498 renal
  TGI: 42.5 µM
SN12C renal
  TGI: > 50 µM
MOLT-4 leukemia
  TGI: 36 µM
NCI-H23 lung
  TGI: > 50 µM
UO-31 renal
  TGI: > 50 µM
MCF7 breast
  TGI: > 50 µM
LOX IMVI melanoma
  TGI: 22.1 µM
IGROV1 ovarian
  TGI: 27.6 µM
M14 melanoma
  TGI: > 50 µM
SK-OV-3 ovarian
  TGI: 49.4 µM
MDA-N
  TGI: > 50 µM
OVCAR-8 ovarian
  TGI: 37.6 µM
MALME-3M melanoma
  TGI: > 50 µM
SK-MEL-2 melanoma
  TGI: 24.1 µM
NCI-H522 lung
  TGI: 16 µM
UACC-62 melanoma
  TGI: 17.7 µM
SF-268 CNS
  TGI: > 50 µM
SNB-75 CNS
  TGI: 39.5 µM
SF-295 CNS
  TGI: 27.1 µM
COLO 205 colon
  TGI: 15.8 µM
KM12 colon
  TGI: > 50 µM
HCT-15 colon
  TGI: > 50 µM
TK-10 renal
  TGI: > 50 µM
DU-145 prostate
  TGI: > 50 µM
ACHN renal
  TGI: > 50 µM
OVCAR-4 ovarian
  TGI: 39.6 µM
CAKI-1 renal
  TGI: > 50 µM
PC-3 prostate
  TGI: 30 µM
SR leukemia
  TGI: 28 µM
HL-60(TB) leukemia
  TGI: 21.7 µM
K-562 leukemia
  TGI: > 50 µM
SF-539 CNS
  TGI: 28.5 µM
HCC-2998 colon
  TGI: 0.031 µM
786-0 renal
  TGI: 33.8 µM
RPMI-8226 leukemia
  TGI: 22.4 µM
HT29 colon
  TGI: > 50 µM
OVCAR-5 ovarian
  TGI: > 50 µM
SNB-19 CNS
  TGI: > 50 µM
HCT-116 colon
  TGI: > 50 µM

## CN(C)CCNc1nc2c(no[n+]2[O-])c2ccccc12
EKVX NSCLC
  TGI: 73.9 µM
OVCAR-3 ovarian
  TGI: 71.7 µM
SK-MEL-28 melanoma
  TGI: > 100 µM
NCI-H226 lung
  TGI: 54.9 µM
U251 CNS
  TGI: 83.8 µM
SW-620 colon
  TGI: 46 µM
T-47D breast
  TGI: > 100 µM
MDA-MB-231 breast
  TGI: 34.3 µM
UACC-257 melanoma
  TGI: 34.1 µM
SK-MEL-5 melanoma
  TGI: 28.4 µM
A549 NSCLC
  TGI: 33.5 µM
NCI/ADR-RES ovarian
  TGI: 58.7 µM
RXF 393 renal
  TGI: 38.6 µM
MDA-MB-435
  TGI: 35.2 µM
NCI-H460 lung
  TGI: > 100 µM
CCRF-CEM leukemia
  TGI: > 100 µM
HOP-92 NSCLC
  TGI: 45.1 µM
A498 renal
  TGI: 31.6 µM
SN12C renal
  TGI: > 100 µM
MOLT-4 leukemia
  TGI: 95.8 µM
NCI-H23 lung
  TGI: > 100 µM
UO-31 renal
  TGI: 49.1 µM
MCF7 breast
  TGI: > 100 µM
LOX IMVI melanoma
  TGI: 35.1 µM
IGROV1 ovarian
  TGI: 53 µM
M14 melanoma
  TGI: 30.3 µM
SK-OV-3 ovarian
  TGI: 98.8 µM
MDA-N
  TGI: 91.4 µM
OVCAR-8 ovarian
  TGI: 32.8 µM
MALME-3M melanoma
  TGI: 37.1 µM
SK-MEL-2 melanoma
  TGI: 40.4 µM
NCI-H522 lung
  TGI: 65.4 µM
UACC-62 melanoma
  TGI: 41.4 µM
SF-268 CNS
  TGI: > 100 µM
SNB-75 CNS
  TGI: 52.4 µM
SF-295 CNS
  TGI: 81.9 µM
COLO 205 colon
  TGI: 66.7 µM
KM12 colon
  TGI: 58.9 µM
HCT-15 colon
  TGI: 57.4 µM
TK-10 renal
  TGI: 63.1 µM
DU-145 prostate
  TGI: > 100 µM
ACHN renal
  TGI: 40.4 µM
OVCAR-4 ovarian
  TGI: 61.1 µM
HOP-62 NSCLC
  TGI: 34.9 µM
CAKI-1 renal
  TGI: 60.6 µM
PC-3 prostate
  TGI: 89.5 µM
SR leukemia
  TGI: 74.8 µM
HS 578T breast
  TGI: 76.6 µM
K-562 leukemia
  TGI: 87.7 µM
SF-539 CNS
  TGI: 27.6 µM
HCC-2998 colon
  TGI: 59.2 µM
786-0 renal
  TGI: 99 µM
RPMI-8226 leukemia
  TGI: > 100 µM
HT29 colon
  TGI: > 100 µM
OVCAR-5 ovarian
  TGI: > 100 µM
SNB-19 CNS
  TGI: 79 µM
HCT-116 colon
  TGI: 52.9 µM

## O=[N+]([O-])c1cc(Cl)ccc1S(=O)(=O)N1CCCc2cc(Cl)ccc21
EKVX NSCLC
  TGI: > 100 µM
OVCAR-3 ovarian
  TGI: > 100 µM
SK-MEL-28 melanoma
  TGI: > 100 µM
NCI-H226 lung
  TGI: > 100 µM
SW-620 colon
  TGI: > 100 µM
MDA-MB-231 breast
  TGI: > 100 µM
UACC-257 melanoma
  TGI: 83.7 µM
SK-MEL-5 melanoma
  TGI: > 100 µM
A549 NSCLC
  TGI: > 100 µM
NCI/ADR-RES ovarian
  TGI: > 100 µM
RXF 393 renal
  TGI: > 100 µM
MDA-MB-435
  TGI: > 100 µM
NCI-H460 lung
  TGI: > 100 µM
CCRF-CEM leukemia
  TGI: > 100 µM
HOP-92 NSCLC
  TGI: > 100 µM
A498 renal
  TGI: > 100 µM
SN12C renal
  TGI: > 100 µM
MOLT-4 leukemia
  TGI: > 100 µM
UO-31 renal
  TGI: > 100 µM
MCF7 breast
  TGI: > 100 µM
LOX IMVI melanoma
  TGI: > 100 µM
IGROV1 ovarian
  TGI: > 100 µM
BT-549 breast
  TGI: > 100 µM
M14 melanoma
  TGI: > 100 µM
SK-OV-3 ovarian
  TGI: > 100 µM
MDA-N
  TGI: > 100 µM
OVCAR-8 ovarian
  TGI: > 100 µM
MALME-3M melanoma
  TGI: > 100 µM
SK-MEL-2 melanoma
  TGI: > 100 µM
UACC-62 melanoma
  TGI: > 100 µM
SF-268 CNS
  TGI: > 100 µM
SNB-75 CNS
  TGI: > 100 µM
SF-295 CNS
  TGI: > 100 µM
COLO 205 colon
  TGI: > 100 µM
KM12 colon
  TGI: > 100 µM
HCT-15 colon
  TGI: > 100 µM
TK-10 renal
  TGI: > 100 µM
DU-145 prostate
  TGI: > 100 µM
ACHN renal
  TGI: > 100 µM
OVCAR-4 ovarian
  TGI: > 100 µM
HOP-62 NSCLC
  TGI: > 100 µM
CAKI-1 renal
  TGI: > 100 µM
PC-3 prostate
  TGI: > 100 µM
HS 578T breast
  TGI: > 100 µM
K-562 leukemia
  TGI: > 100 µM
SF-539 CNS
  TGI: > 100 µM
HCC-2998 colon
  TGI: > 100 µM
786-0 renal
  TGI: > 100 µM
RPMI-8226 leukemia
  TGI: > 100 µM
HT29 colon
  TGI: > 100 µM
OVCAR-5 ovarian
  TGI: > 100 µM
SNB-19 CNS
  TGI: > 100 µM
HCT-116 colon
  TGI: > 100 µM
